Measurements reported in patent US8987449B2, “Medicine for treating ischemic brain injury and its sequelae, and preparation method thereof” (Haimin Lei, priority 2011, dated 2015).

Experiments:
MCAO rats = test: Neurological symptoms of MCAO rats (Zea Longa 5 grades); format: in vivo, rat; conditions: 0-4 points; for neurological symptoms evaluation (3 d): model group 1.74 ± 0.73; for neurological symptoms evaluation (7 d): model group 1.61 ± 0.96
Protocol: 140 healthy SD male rats, weighing 280-300 g, provided by Beijing Vital River Laboratories, certificate No.: SCXK (Jing) 2002-2003.
Tetramethylpyrazine (TMP), vanillic acid, LQC-T4 (self made), the purity ≧98%, determined using high performance liquid chromatography (HPLC), which met the requirement of experiment, the powder being carefully sealed and preserved at 4° C., and imodipine (ShanDong XinHua Pharmaceutical CO., Ltd, batch No.: 0908164).
The method of [Koizumi J, Yoshida Y, Nakazawa T, Ooneda G. Experimental studies of ischemia brain edema, I: A new experimental model of cerebral embolism in rats in which recirculation can be introduced in the ischemic area[J]. Jpn J Stroke, 1986, 8:1-8] was referred to in order to establish the MCAO model. After the rats were anesthetized and the skin thereof was disinfected by ethanol. By cutting right in the middle of the neck, the right common carotid artery, internal carotid artery and external carotid artery were separated and the common carotid artery and external carotid artery were ligated. The internal carotid artery was clamped with a bulldog clamp. A cut was made at the crotch of the external carotid artery and the internal carotid artery followed by releasing the bulldog clamp. The nylon wire was inserted into the cut with the deep of about a little longer than 18 mm to achieve the cerebral ischemia caused by cerebral artery occlusion. Next, the external carotid artery was ligated and the nylon wire was fixed. In sham operation group, the right common carotid artery, the external carotid artery and the internal carotid artery were only exposed and separated. The rats were routinely raised in different cages. 0.5 ml penicillin was continuously injected into every mouse for three days after the surgery.
The evaluating standard of the neurological symptoms of MCAO rats were carried out according to the Zea Longa 5 grades evaluating method, that is, the rats were evaluated when they were conscious after 6 h after the surgery: no apparent neurological symptom, 0 point; not being able to completely stretch the left front claw, 1 point; whirling leftward, 2 point; leaning leftward when walking, 3 point; having an epileptic seizure, losing consciousness and not being able to walk independently, as 4 point. The rats getting 1-3 point were selected for the subsequent experiment. The MCAO rats having the same point were distributed randomly and averagely to each experimental group.
There were sham operation group, model group, Nimodipine group, LQC-T 4 large dosage group, LQC-T4 small dosage group, TMP group and TMP+Vanillic acid group. 0.5% CMC-Na (1 ml·100 g^−1) was administrated intragastrically to the blank group and model group, two dosage groups of 120 mg·kg^−1 and 60 mg·kg^−1 were intragastrically administrated to the LQC-T4(1 ml·100 g^−1) group, and 74 mg·kg^−1 TMP+46 mg·kg^−1 vanillitc acid (1 ml·100 g^−1) were intragastrically administrated, once a day continuously for 10 days.
The SPSS 11.0 software pack was used to carry out the statistical analysis of all the data. The comparison of the enumeration data was carried out with X^2 test P<0.05 had statistical meaning.

Ca^2+—Mg^2+ ATPase = test: Ca2+-Mg2+ ATPase of MCAO rats (brain homogenate, kit); format: in vivo, rat; conditions: ischemia side brain homogenate, model group 5.32 ± 2.61
Protocol: 140 healthy SD male rats, weighing 280-300 g, provided by BeiJing Vital River Laboratories, certificate No.: SCXK (Jing) 2002-2003.
1.3 Experimental reagents: 0.9% physiological saline, Ca^2+—Mg^2+ enzyme kit
10% chloral hydrate 0.35 g/kg was injected into the abdominal cavity of a rat to anesthetize thereof. The rat was fixed as supine position. The skin was disinfected thereof by 75% medical alcohol. It was cut right in the middle of the neck. The right common carotid artery, internal carotid artery and external carotid artery were separated and the common carotid artery and external carotid artery were ligated. The internal carotid artery was clamped with a bulldog clamp. A cut was made at the crotch of the external carotid artery and the internal carotid artery followed by releasing the bulldog clamp. The nylon wire (diameter 0.25 mm, marked at a distance of 18 mm from the head end) was inserted into the cut and the insertion was stopped when some resistance was felt. The insert depth was a little longer than 18 mm to achieve the cerebral ischemia caused by middle cerebral artery occlusion. The internal carotid artery was ligated and the nylon wire was fixed. The muscle and skin were sutured layer by layer. In sham operation group, the right common carotid artery, the external carotid artery and the internal carotid artery were only exposed and separated. The rats were conventionally raised in different cages regularly. 0.5 ml penicillin was continuously injected into every rat for three days after the surgery.
The rat condition was evaluated after 6 h after the surgery when the rats were conscious according to the Zea Longa 5 grades evaluating method, wherein no apparent neurological symptom was evaluated as 0 point; not being able to completely stretch the left front claw was evaluated as 1 point; whirling leftward was evaluated as 2 point; leaning leftward when walking was evaluated as 3 point; having an epileptic seizure, losing consciousness and not being able to walk independently was evaluated as 4 point. The rats getting 1-3 point were selected for the subsequent experiment.
The rats were divided into 7 groups in the experiment, that is, sham operation group, model group, Nimodipine group, LQC-T4 large dosage group, LQC-T4 small dosage group, TMP group, and TMP+Vanillic acid group. The model rats getting 1 point were distributed randomly into the model group and other administration group, while the rats getting 2 point and 3 point were distributed randomly into above 6 groups according the above method and sham operation group was not involved in the above grouping. […]

[1] = 60 mg/kg intragastrically once a day
[2] = 120 mg/kg intragastrically once a day

Structure (SMILES): COCCOC(=O)C1=C(C)NC(C)=C(C(=O)OC(C)C)C1c1cccc([N+](=O)[O-])c1 (stereo not drawn) [Nimodipine, reference compound]
- neurological symptoms evaluation (3 d) (MCAO rats; 30 mg/kg once a day): 1.35 ± 0.49
- neurological symptoms evaluation (7 d) (MCAO rats; 30 mg/kg once a day): 1.11 ± 0.48
- Ca—Mg ATPase activity (Ca^2+—Mg^2+ ATPase; 30 mg/kg once per day for 10 days): 13.25 ± 5.73

Structure (SMILES): Cc1nc(C)c(C)nc1C [TMP, tetramethylpyrazine, reference compound]
- neurological symptoms evaluation (3 d) (MCAO rats; 37 mg/kg once a day): 1.36 ± 0.50
- neurological symptoms evaluation (7 d) (MCAO rats; 37 mg/kg once a day): 1.67 ± 0.78
- Ca—Mg ATPase activity (Ca^2+—Mg^2+ ATPase; 37 mg/kg once per day for 10 days): 9.13 ± 4.11

Structure (SMILES): COc1cc(C(=O)OCc2nc(C)c(C)nc2C)ccc1OCc1nc(C)c(C)nc1C [LQC-T4, (3,5,6-trimethylpyrazine-2-yl)methyl 3-methoxy-4-((3,5,6-trimethylpyrazine-2-yl)methoxy) benzoate]
- neurological symptoms evaluation (3 d) (MCAO rats; [1]): 1.40 ± 0.51
- neurological symptoms evaluation (7 d) (MCAO rats; [1]): 1.26 ± 0.35
- neurological symptoms evaluation (3 d) (MCAO rats; [2]): 1.29 ± 0.47
- neurological symptoms evaluation (7 d) (MCAO rats; [2]): 1.60 ± 0.74
- Ca—Mg ATPase activity (Ca^2+—Mg^2+ ATPase; 60 mg/kg intragastrically once per day for 10 days): 8.91 ± 4.05
- Ca—Mg ATPase activity (Ca^2+—Mg^2+ ATPase; 120 mg/kg intragastrically once per day for 10 days): 10.07 ± 5.15
